From patent US20110190245A1, “NANOSUSPENSION WITH ANTIFUNGAL MEDICATION TO BE ADMINISTERED VIA INHALATION WITH IMPROVED IMPURITY PROFILE AND SAFETY” (priority 2008, published 2011) come the findings set out here.

The subject of the experiment is A. fumigatus. Briefly: Second experiment: survival of immune-suppressed balb-c mice infected intranasally with A. fumigatus conidia. It is filed as in vivo, Aspergillus fumigatus. Details: animals that had died by day 6 after infection: dose or concentration left out as unconfirmed. As to the method: In a second experiment, male balb-c mice were utilized. The animals of all groups were immune-suppressed using 100 mg/kg body weight cyclophosphamide at day −4, −1, 0, 2, 5 and 8. On day −1, the animals received 100 mg/kg cyclophosphamide i.p. and 200 mg/kg cortisone acetate subcutaneous (24±2 hours before infection). Additionally, the animals were treated by inhalation of itraconazole using the same inhalation device as described in the study above. At day 0, the animals were infected intranasally with 2.5×104 A. fumigatus conidia.
Additionally, one group of mice used as reference group was treated with Amphotericin B i.p. using 3 mg/kg daily.
The drug effect was assessed as the number of surviving animals. As expected, 9 out of 12 control animals had already died on day 6 after infection and the remaining animals died with the exception of one until day 9. For animals treated as decribed above, i.e. using the 10% aerosol of itraconazole twice daily, a strong effect was seen.

Consider `C[C@@H]1[C@H](O)[C@@H](C)/C=C/C=C/C=C/C=C/C=C/C=C/C=C/[C@H](O[C@@H]2O[C@H](C)[C@@H](O)[C@H](N)[C@@H]2O)C[C@@H]2O[C@](O)(C[C@@H](O)C[C@@H](O)[C@H](O)CC[C@@H](O)C[C@@H](O)CC(=O)O[C@H]1C)C[C@H](O)[C@H]2C(=O)O` [Amphothericin B, Amphotericin B], for which the “animals that had died by day 6 after infection” value (12 per group, control animals) is given as 3. Besides, the “animals that had died at the end of the observation period” value (14 days observation, itraconazole 10% aerosol twice daily, Amphotericin B i.p. 3 mg/kg daily) is recorded as 9 out of 12.
